In ChEMBL document CHEMBL1201862, “PubChem BioAssay data set” (2004):
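48-hour exposure; five concentrations; linearly interpolated endpoints. At the GI50, growth is halved.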 The source made the active and inactive calls. Cut-off read from the data, not from the text of the source: active = GI50 up to about 1.1 µM and inactive = higher.

Key:
Test in all cases: NCI tumour cell line growth inhibition, 48 h
[1] = system: A498
[2] = system: ACHN
[3] = system: EKVX
[4] = system: HT-29
[5] = system: LOX IMVI
[6] = system: Malme-3M
[7] = system: NCI-H23
[8] = system: OVCAR-5
[9] = system: OVCAR-8
[10] = system: RPMI-8226
[11] = system: SF-295
[12] = system: SK-MEL-5
[13] = system: SNB-19
[14] = system: SR
[15] = system: UACC-257
[16] = system: UACC-62
[17] = system: NCI-H522

Compound | GI50 [1] | GI50 [2] | GI50 [3] | GI50 [4] | GI50 [5] | GI50 [6] | GI50 [7] | GI50 [8] | GI50 [9] | GI50 [10] | GI50 [11] | GI50 [12] | GI50 [13] | GI50 [14] | GI50 [15] | GI50 [16] | GI50 [17]
C=C1CCC(OC(C)=O)C2(C)C(OC(C)=O)CC3OC3(C)C2C(OC(C)=O)C2C(C)C(=O)OC2C1Cl (stereo not drawn) | > 100 µM (inactive) | > 100 µM (inactive) | > 100 µM (inactive) | > 100 µM (inactive) | > 100 µM (inactive) | > 100 µM (inactive) | > 100 µM (inactive) | > 100 µM (inactive) | > 100 µM (inactive) | > 100 µM (inactive) | > 100 µM (inactive) | > 100 µM (inactive) | > 100 µM (inactive) | > 100 µM (inactive) | > 100 µM (inactive) | > 100 µM (inactive) | –
Cc1nc2ccccn2c1/N=N/c1ccc(C(=O)NN)cc1 | 27.7 µM (inactive) | 36 µM (inactive) | 36.5 µM (inactive) | 73.5 µM (inactive) | 26.3 µM (inactive) | > 100 µM (inactive) | 28.9 µM (inactive) | 36.1 µM (inactive) | 95.3 µM (inactive) | 28.4 µM (inactive) | 43.2 µM (inactive) | 22.4 µM (inactive) | 49.5 µM (inactive) | – | 97.5 µM (inactive) | 80.2 µM (inactive) | –
CN(C)C(=N)c1ccccc1 | – | – | – | > 100 µM (inactive) | > 100 µM (inactive) | > 100 µM (inactive) | > 100 µM (inactive) | > 100 µM (inactive) | > 100 µM (inactive) | – | > 100 µM (inactive) | – | > 100 µM (inactive) | > 100 µM (inactive) | > 100 µM (inactive) | – | > 100 µM (inactive)
COC(=O)C1CC2CC(=NNC(N)=O)CC2C1 (stereo not drawn) | > 100 µM (inactive) | > 100 µM (inactive) | > 100 µM (inactive) | > 100 µM (inactive) | > 100 µM (inactive) | > 100 µM (inactive) | > 100 µM (inactive) | > 100 µM (inactive) | > 100 µM (inactive) | > 100 µM (inactive) | > 100 µM (inactive) | > 100 µM (inactive) | > 100 µM (inactive) | – | > 100 µM (inactive) | > 100 µM (inactive) | > 100 µM (inactive)
N#CC(C#N)=c1ccc(=C2N3CCCC3CN2C23CC4CC(CC(C4)C2)C3)cc1 (stereo not drawn) | – | > 100 µM (inactive) | > 100 µM (inactive) | > 100 µM (inactive) | > 100 µM (inactive) | > 100 µM (inactive) | > 100 µM (inactive) | > 100 µM (inactive) | > 100 µM (inactive) | > 100 µM (inactive) | > 100 µM (inactive) | > 100 µM (inactive) | 84.1 µM (inactive) | > 100 µM (inactive) | > 100 µM (inactive) | 90.6 µM (inactive) | > 100 µM (inactive)
Cc1ccc(S(=O)(=O)N/N=C2\C(=O)C3CC2C(Cl)C3Cl)cc1 (stereo not drawn) | > 100 µM (inactive) | > 100 µM (inactive) | – | > 100 µM (inactive) | > 100 µM (inactive) | > 100 µM (inactive) | > 100 µM (inactive) | > 100 µM (inactive) | > 100 µM (inactive) | > 100 µM (inactive) | > 100 µM (inactive) | > 100 µM (inactive) | > 100 µM (inactive) | > 100 µM (inactive) | > 100 µM (inactive) | > 100 µM (inactive) | –
[C-]#[N+][C@@H]1C2[C@H](CC[C@@]1(C)O)C(=C)CC[C@@H]2[C@@]1(C)CC[C@H](Cl)C(C)(C)O1 (stereo partly drawn) | 18.5 µM (inactive) | 4.22 µM (inactive) | 7.14 µM (inactive) | 11.9 µM (inactive) | 3.95 µM (inactive) | 5.28 µM (inactive) | 4.75 µM (inactive) | – | 3.29 µM (inactive) | 2.51 µM (inactive) | 12.1 µM (inactive) | 3.02 µM (inactive) | 7.1 µM (inactive) | – | 8.32 µM (inactive) | 3.59 µM (inactive) | 4.42 µM (inactive)
CCC12C=C(C(=O)OC)N3c4ccccc4C4CCN(CCC1)C2C43 (stereo not drawn) | 66.2 µM (inactive) | 62.5 µM (inactive) | > 100 µM (inactive) | 32.1 µM (inactive) | 59.4 µM (inactive) | 18.8 µM (inactive) | 99.3 µM (inactive) | 40.9 µM (inactive) | > 100 µM (inactive) | 50.6 µM (inactive) | 98.2 µM (inactive) | 72.1 µM (inactive) | 72.4 µM (inactive) | – | 34.2 µM (inactive) | > 100 µM (inactive) | 75.7 µM (inactive)
C#CC1(O)CCC2C3CCc4cc(Oc5nc(F)nc(-c6c7ccccc7c7n6CCS7)n5)ccc4C3CC[C@@]21C (stereo partly drawn) | – | 29.6 µM (inactive) | – | 27.9 µM (inactive) | – | 38.5 µM (inactive) | 18.7 µM (inactive) | > 100 µM (inactive) | 27.7 µM (inactive) | 19.6 µM (inactive) | 15.6 µM (inactive) | 17.4 µM (inactive) | 24.6 µM (inactive) | 5.79 µM (inactive) | 36.1 µM (inactive) | 21.1 µM (inactive) | 4.37 µM (inactive)
O=C(O)c1cccc(S(=O)(=O)NN2C(=O)CSC2c2c(O)ccc3ccccc23)c1 (stereo not drawn) | 24.5 µM (inactive) | 34.1 µM (inactive) | 45.8 µM (inactive) | 29.9 µM (inactive) | 27.4 µM (inactive) | 26.5 µM (inactive) | 21.7 µM (inactive) | 79.3 µM (inactive) | < 0.01 µM (active) | – | 29.3 µM (inactive) | 21 µM (inactive) | 26.4 µM (inactive) | 24.9 µM (inactive) | 56.4 µM (inactive) | 27 µM (inactive) | 27.8 µM (inactive)
NC(=O)C(=O)Cc1nc2ccccc2s1 | > 100 µM (inactive) | > 100 µM (inactive) | > 100 µM (inactive) | > 100 µM (inactive) | > 100 µM (inactive) | > 100 µM (inactive) | > 100 µM (inactive) | > 100 µM (inactive) | > 100 µM (inactive) | > 100 µM (inactive) | > 100 µM (inactive) | – | > 100 µM (inactive) | – | > 100 µM (inactive) | – | > 100 µM (inactive)
CC1=N/C(=C\c2cccc3ccccc23)C(=O)O1 | > 100 µM (inactive) | > 100 µM (inactive) | > 100 µM (inactive) | > 100 µM (inactive) | – | > 100 µM (inactive) | > 100 µM (inactive) | > 100 µM (inactive) | > 100 µM (inactive) | > 100 µM (inactive) | > 100 µM (inactive) | > 100 µM (inactive) | > 100 µM (inactive) | – | > 100 µM (inactive) | > 100 µM (inactive) | > 100 µM (inactive)
O=C(CC1Sc2ccccc2NC1=O)Nc1ccc([N+](=O)[O-])cc1[N+](=O)[O-] (stereo not drawn) | – | 15.3 µM (inactive) | 32.2 µM (inactive) | 17.7 µM (inactive) | 16.2 µM (inactive) | 19.8 µM (inactive) | 13.1 µM (inactive) | 29.2 µM (inactive) | 16.5 µM (inactive) | 11.3 µM (inactive) | 16.8 µM (inactive) | 15.8 µM (inactive) | 19.5 µM (inactive) | – | 19.9 µM (inactive) | 15.4 µM (inactive) | –
